Data: patent US20200217852A1, “Quantitation of Free and Total N-Acetylcysteine Amide and Its Metabolite N-Acetylcysteine in Human Plasma Using Derivatization and Electrospray LC-MS/MS” (NACUITY PHARMACEUTICALS, INC., priority 2019, published 2020)
Like-named read-outs stand apart in the source and are kept apart here.

What was measured:
[1] = Stability of underivatized NAC and NACA thiol in plasma monitored directly by HILIC LC-MS/MS; type: in vitro ADME; settings: human, room temperature, read-out: Half-lives for thiol disappearance
Protocol: Half-lives for thiol disappearance were approximately 10 minutes at room temperature. Therefore, the inventors sought to stabilize NAC and NACA by derivatization. When plasma samples spiked with NAC and NACA were treated with TCEP and CMPI, the thiols were well recovered as the thioether derivatives.
(§1) All stability testing in plasma (benchtop, freeze/thaw, and long-term storage) was performed using QC samples prepared in both CMPI-fortified plasma as well as unfortified plasma. In this manner, the stabilities of both the oxidized thiols (in disulfide forms) and the thioether derivatives were tested, since it was assumed that unknown samples would likely contain some of both species. The CMPI-thioethers were stable for at least 5 freeze/thaw cycles and for at least 20 hours at room temperature, as compared to less than 1 hour for the underivatized free thiols. The oxidized thiols were stable for at least 5 freeze/thaw cycles and for at least 22 hours, as evidenced by their full recovery as thioethers when assayed using the total method. Stability was also tested in extracts, whether held for first injection or reinjected. Extracts were stable for over 90 hours when refrigerated. Precision and accuracy was acceptable in lipemic and hemolyzed plasma.

[2] = type: in vitro ADME; settings: human
Protocol: Calibration standards (CS) were prepared by mixing CMPI-fortified control matrix (95 parts) with the respective spiking solution (5 parts) to make 50.0, 40.0, 20.0, 5.00, 2.50, 0.500, 0.100, and 0.050 μg/mL NAC/NACA pools which were stable for at least 80 days when stored at −20° C. and for 284 days when stored at −80° C. It was critical that CS pools be spiked quickly after CMPI fortification of the plasma, with the lowest concentration pools being spiked first, within 5-10 minutes of mixing plasma with CMPI.
Validation. The method was validated according to regulatory guidances. Three independently prepared analytical runs were executed to test the linearity of the calibration curve and the precision and accuracy of measuring validation samples (over 4 concentrations). Additional runs to evaluate recovery, matrix factor/suppression effects, reinjection reproducibility, and carryover were also performed. The selectivity of the method was evaluated over 10 lots of human plasma and the same lots were spiked at the mid QC level to verify inter-subject precision and accuracy. Freeze/thaw, benchtop, and autosampler stabilities were determined. Precision and accuracy data were also generated in lipemic and hemolyzed plasma lots, and stability in whole blood was tested. Long run lengths (up to 192 samples over 2 plates) were evaluated to determine whether the analytical system was reliable over twice the expected duty cycle.
as §1

CC(=O)N[C@@H](CS)C(=O)O [NAC, N-acetyl-L-cysteine]
half-life [1]: ~10 min | Freeze/Thaw Stability [2]: At least 5 cycles, at either −20 °C or −80° C., either analyte | Benchtop Stability ([2]; 20 hours): At least 20 hours at room temperature, either analyte | Stability of calibration standard pools ([2]; 80 days): at least 80 days | Stability of calibration standard pools ([2]; 284 days): 284 days
